Consider 29 compounds from patent US8466290B2, “STAT3 inhibitor containing quinolinecarboxamide derivative as active ingredient” (Pharma IP General Incorporated Association, priority 2008, dated 2013).

Where only a bound is given, the exact number is not on record here.

The test system of one test is STAT3. Nature of the test: STAT3 transcription inhibition test (reporter gene method, oncostatin M stimulation). It counts as cell-based. To be noted: Homo sapiens; compound at 100 μM; STAT3 reporter HeLa stable cell line; oncostatin M 10 ng/mL, 4 hours; read-out: STAT3 transcription inhibitory activity (%). The protocol: The inhibition of STAT3 transcription was evaluated by using STAT3 reporter HeLa stable cell line (Panomics Inc., catalog No. RC0003), a cell line for the reporter gene method, and performing the following method according to the appendix included therein.
STAT3 reporter HeLa stable cell line subcultured and maintained in a Dulbecco's modified Eagle's medium (DMEM) containing 10% fetal bovine serum, 100 units/mL penicillin, and 100 μg/mL streptomycin was inoculated at a concentration of 40000 cells/well to a 96-well plate (white) and attached to the plate by overnight incubation at 37° C. under 5% CO2. After addition of each evaluation compound adjusted to various concentrations (adjusted with a DMSO solution), the cells were precultured for 1 hour. Then, oncostatin M for activating STAT3 was added at a final concentration 10 ng/mL, and the cells were further cultured at 37° C. under 5% CO2 for 4 hours. Luciferase activity derived from the cells was determined using Steady-Glo Luciferase Assay System (Promega Corp.), and STAT3 transcriptional activity scores were calculated according to the following formula: STAT3 transcriptional activity score (%)=100×(Lchem−L0)/(LDMSO−L0) Lo: luminescence intensity obtained without stimulation with oncostatin M Lchem: luminescence intensity obtained by the addition of a test sample LDMSO: luminescence intensity obtained by the addition of only a solvent for dissolving a test sample
On the technique in general: In a reporter assay the amount or activity of a reporter protein is the signal.

The subject of a further test is MDA-MB-435S. In words: MDA-MB-435S cell growth inhibitory activity. It counts as cell-based. Conditions: Homo sapiens, compound at 20 μM, 72 hours, read-out: Cell growth inhibitory activity (%). Here is the method:
[…] Each well was washed three times with a medium. Then, after addition of 100 μL/well of a medium and 20 μL/well of CellTiter 96 AQueous One Solution Reagent (Promega Corp.), the cells were incubated at 37° C. for 2 hours in the presence of 5% CO2.

Regarding `O=C(Nc1nnc(-c2ccco2)o1)c1cc(-c2ccccc2O)nc2ccccc12` [Ia-38, N-[5-(2-furyl)-1,3,4-oxadiazol-2-yl]-2-(2-hydroxyphenyl)-4-quinolinecarboxamide], the inhibition at 100 µM in the test on STAT3 is greater than 100%. In addition, the inhibition at 20 µM in the test with MDA-MB-435S worked out at 50%.
For `O=C(Nc1nnc(-c2ccco2)o1)c1cc(-c2cccc(Cl)c2)nc2ccccc12` [Ia-41, 2-(3-chlorophenyl)-N-[5-(2-furyl)-1,3,4-oxadiazol-2-yl]-4-quinolinecarboxamide], in the test on STAT3, the inhibition at 100 µM is greater than 100%. Besides, the inhibition at 20 µM in the test on MDA-MB-435S was found to be 55%.
`COc1cccc(-c2cc(C(=O)Nc3nnc(-c4ccco4)o3)c3ccccc3n2)c1` [Ia-42, N-[5-(2-furyl)-1,3,4-oxadiazol-2-yl]-2-(3-methoxyphenyl)-4-quinolinecarboxamide]: in the test with STAT3, the inhibition at 100 µM was 92%. Also, in the test with MDA-MB-435S, the inhibition at 20 µM is 92%.
`N#Cc1cccc(-c2cc(C(=O)Nc3nnc(-c4ccco4)o3)c3ccccc3n2)c1` [Ia-43, 2-(3-cyanophenyl)-N-[5-(2-furyl)-1,3,4-oxadiazol-2-yl]-4-quinolinecarboxamide]: in the test on STAT3, the inhibition at 100 µM is 71%. Further, in the test with MDA-MB-435S, the inhibition at 20 µM is 72%.
The matching figures for `O=C(Nc1nnc(-c2ccco2)o1)c1cc(-c2ccc(F)cc2)nc2ccccc12` [Ia-46, 2-(4-fluorophenyl)-N-[5-(2-furyl)-1,3,4-oxadiazol-2-yl]-4-quinolinecarboxamide]: 80% and 54%.
The matching figures for `Cc1ccc(-c2cc(C(=O)Nc3nnc(-c4ccco4)o3)c3ccccc3n2)cc1` [Ia-48, N-[5-(2-furyl)-1,3,4-oxadiazol-2-yl]-2-(4-methylphenyl)-4-quinolinecarboxamide]: 92% and 69%.
For `O=C(Nc1nnc(-c2ccco2)o1)c1cc(-c2ccc(OC(F)F)cc2)nc2ccccc12` [Ia-49, 2-(4-difluoromethoxyphenyl)-N-[5-(2-furyl)-1,3,4-oxadiazol-2-yl]-4-quinolinecarboxamide], the inhibition at 100 µM with STAT3 was greater than 100%. Moreover, in the test on MDA-MB-435S, the inhibition at 20 µM stood at 51%.
Take `COc1ccc(-c2cc(C(=O)Nc3nnc(-c4ccco4)o3)c3ccccc3n2)cc1` [Ia-51, N-[5-(2-furyl)-1,3,4-oxadiazol-2-yl]-2-(4-methoxyphenyl)-4-quinolinecarboxamide]: the inhibition at 100 µM with STAT3 is greater than 100%. Further, in the test with MDA-MB-435S, the inhibition at 20 µM stood at 56%.
With `COc1ccc(-c2cc(C(=O)Nc3nnc(-c4ccco4)o3)c3ccccc3n2)cc1OC` [Ia-57, N-[5-(2-furyl)-1,3,4-oxadiazol-2-yl]-2-(3,4-dimethoxyphenyl)-4-quinolinecarboxamide], the inhibition at 100 µM with STAT3 was greater than 100%. The inhibition at 20 µM with MDA-MB-435S was found to be 64%.
Taken in the same sequence, the figures for `O=C(Nc1nnc(-c2ccco2)o1)c1cc(-c2ccc3c(c2)OCO3)nc2ccccc12` [Ia-58, N-[5-(2-furyl)-1,3,4-oxadiazol-2-yl]-2-(3,4-methylenedioxyphenyl)-4-quinolinecarboxamide] were greater than 100% and 58%.
Taken in the same sequence, the figures for `Cc1ccc(-c2cc(C(=O)Nc3nnc(-c4ccco4)o3)c3ccccc3n2)o1` [Ia-64, N-[5-(2-furyl)-1,3,4-oxadiazol-2-yl]-2-(5-methyl-2-furyl)-4-quinolinecarboxamide] were greater than 100% and 57%.
Take `O=C(Nc1nnc(-c2ccco2)o1)c1cc(-c2ccccc2)nc2ccc(Br)cc12` [Ia-68, 6-bromo-N-[5-(2-furyl)-1,3,4-oxadiazol-2-yl]-2-phenyl-4-quinolinecarboxamide]: in the test with STAT3, the inhibition at 100 µM is greater than 100%. Moreover, the inhibition at 20 µM in the test on MDA-MB-435S was 63%.
As to `O=C(Nc1nnc(-c2ccco2)o1)c1cc(-c2ccccc2)nc2ccc(-c3ccccc3)cc12` [Ia-75, N-[5-(2-furyl)-1,3,4-oxadiazol-2-yl]-2,6-diphenyl-4-quinolinecarboxamide], the inhibition at 100 µM in the test with STAT3 was greater than 100%. Also, the inhibition at 20 µM in the test with MDA-MB-435S amounted to 64%.
The matching figures for `O=C(Nc1nnc(-c2ccco2)o1)c1cc(-c2ccccc2)nc2ccc(-c3ccncc3)cc12` [Ia-76, N-[5-(2-furyl)-1,3,4-oxadiazol-2-yl]-2-phenyl-6-(4-pyridyl)-4-quinolinecarboxamide]: greater than 100% and 84%.
Taken in the same sequence, the figures for `O=C(Nc1nnc(Cc2ccccc2)o1)c1cc(-c2ccccc2)nc2ccccc12` [Ia-83, N-(5-benzyl-1,3,4-oxadiazol-2-yl)-2-phenyl-4-quinolinecarboxamide] were greater than 100% and 90%.
The matching figures for `CCC(=O)Nc1ccc2nc(-c3ccccc3)cc(C(=O)Nc3nnc(-c4ccco4)o3)c2c1` [Ia-93, N-[5-(2-furyl)-1,3,4-oxadiazol-2-yl]-2-phenyl-6-propionylamino-4-quinolinecarboxamide]: 72% and 67%.
Turning to `O=C(Nc1nnc(-c2ccco2)o1)c1cc(-c2ccccc2)nc2ccc(-c3ccc(O)cc3)cc12` [Ia-98, N-[5-(2-furyl)-1,3,4-oxadiazol-2-yl]-6-(4-hydroxyphenyl)-2-phenyl-4-quinolinecarboxamide], in the test on STAT3, the inhibition at 100 µM was greater than 100%. The inhibition at 20 µM in the test with MDA-MB-435S is 86%.
Taken in the same sequence, the figures for `O=C(Nc1nnc(-c2ccco2)o1)c1cc(-c2ccccc2)nc2ccc(-c3ccsc3)cc12` [Ia-99, N-[5-(2-furyl)-1,3,4-oxadiazol-2-yl]-6-(3-thienyl)-2-phenyl-4-quinolinecarboxamide] were 73% and 93%.
For the compound `O=C(Nc1nnc(-c2ccco2)o1)c1cc(-c2ccccc2)nc2ccc(-c3cccnc3)cc12` [Ia-100, N-[5-(2-furyl)-1,3,4-oxadiazol-2-yl]-6-(3-pyridyl)-2-phenyl-4-quinolinecarboxamide], in the test with STAT3, the inhibition at 100 µM came out at 92%. The inhibition at 20 µM in the test on MDA-MB-435S worked out at 76%.
Turning to `O=C(Nc1nnc(-c2ccccc2)o1)c1cc(-c2ccccc2)nc2ccc(Cl)cc12` [Ia-110, 6-chloro-2-phenyl-N-(5-phenyl-1,3,4-oxadiazol-2-yl)-4-quinolinecarboxamide], the inhibition at 100 µM in the test with STAT3 is 89%. Also, the inhibition at 20 µM with MDA-MB-435S amounted to 65%.
Taken in the same sequence, the figures for `O=C(Nc1nnc(-c2ccccc2)o1)c1cc(-c2ccccc2)nc2ccc(OC(F)(F)F)cc12` [Ia-111, N-(5-phenyl-1,3,4-oxadiazol-2-yl)-2-phenyl-6-trifluoromethoxy-4-quinolinecarboxamide] were greater than 100% and 87%.
In the case of `O=C(Nc1nnc(-c2ccccc2Cl)o1)c1cc(-c2ccccc2)nc2ccc(Cl)cc12` [Ia-112, 6-chloro-N-[5-(2-chlorophenyl)-1,3,4-oxadiazol-2-yl]-2-phenyl-4-quinolinecarboxamide], in the test on STAT3, the inhibition at 100 µM is greater than 100%. Also, in the test with MDA-MB-435S, the inhibition at 20 µM was 69%.
The matching figures for `O=C(Nc1nnc(-c2ccccc2Cl)o1)c1cc(-c2ccccc2)nc2ccc(OC(F)(F)F)cc12` [Ia-113, N-[5-(2-chlorophenyl)-1,3,4-oxadiazol-2-yl]-2-phenyl-6-trifluoromethoxy-4-quinolinecarboxamide]: greater than 100% and 76%.
Taken in the same sequence, the figures for `COc1ccc(-c2nnc(NC(=O)c3cc(-c4ccccc4)nc4ccc(OC(F)(F)F)cc34)o2)cc1` [Ia-117, N-[5-(4-methoxyphenyl)-1,3,4-oxadiazol-2-yl]-2-phenyl-6-trifluoromethoxy-4-quinolinecarboxamide] were 87% and 85%.
For `O=C(Nc1nnc(-c2cccs2)o1)c1cc(-c2ccccc2)nc2ccccc12` [Ia-a, 2-phenyl-N-[5-(2-thienyl)-1,3,4-oxadiazol-2-yl]-4-quinolinecarboxamide], the inhibition at 100 µM in the test on STAT3 amounted to 86%. In the test with MDA-MB-435S, the inhibition at 20 µM was determined as 89%.
Taken in the same sequence, the figures for `COc1ccccc1-c1nnc(NC(=O)c2cc(-c3ccccc3)nc3ccccc23)o1` [Ia-c, N-[5-(2-methoxyphenyl)-1,3,4-oxadiazol-2-yl]-2-phenyl-4-quinolinecarboxamide] were 67% and 97%.
The matching figures for `O=C(Nc1nnc(Br)s1)c1cc(-c2ccccc2)nc2ccccc12` [Ib-2, N-(5-bromo-1,3,4-thiadiazol-2-yl)-2-phenyl-4-quinolinecarboxamide]: greater than 100% and 79%.
Taken in the same sequence, the figures for `O=C(Nc1nnc(-c2ccncc2)s1)c1cc(-c2ccccc2)nc2ccc(OC(F)(F)F)cc12` [Ib-8, 2-phenyl-N-[5-(4-pyridyl)-1,3,4-thiadiazol-2-yl]-6-trifluoromethoxy-4-quinolinecarboxamide] were 65% and 80%.
Consider `CC(C)Oc1cccc(-c2cc(C(=O)Nc3nnc(-c4ccncc4)s3)c3ccccc3n2)c1` [Ib-b, 2-(3-isopropoxyphenyl)-N-[5-(4-pyridyl)-1,3,4-thiadiazol-2-yl]-4-quinolinecarboxamide], for which the inhibition at 100 µM in the test on STAT3 is greater than 100%. For the same compound, the inhibition at 20 µM with MDA-MB-435S was 97%.
